Data on 5 compounds can be found in patent US6858591B2, “Antibiotic AA 896 analogs” (Wyeth Holdings Corporation, priority 2001, dated 2005).

Common to all, as to assay: In vitro MIC, broth dilution
What all share (format): cell-based

Test [1] relates to E. coli GC 4559. Conditions: E. coli GC 4559.
Test [2] concerns E. coli GC 4560. Conditions: E. coli GC 4560.
Test [3] relates to E. coli GC 3226. Particulars: E. coli GC 3226.
The test system of test [4] is S. marcescens GC 4077. Particulars: S. marcescens GC 4077.
For test [5], the system named is C. albicans GC 3066. Particulars: C. albicans GC 3066.
The subject of test [6] is M. morganii GC 4531. Particulars: M. morganii GC 4531.
The subject of test [7] is K. pneumoniae GC 4534. Particulars: K. pneumoniae GC 4534.
Test [8] deals with E. cloacae GC 3783. Conditions: E. cloacae GC 3783.
Test [9] relates to P. aeruginosa GC 4532. Conditions: P. aeruginosa GC 4532.
In test [10] the test system is CNS GC 4537. The method in brief: (§1)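 MIC = lowest antibiotic concentration preventing visible growth after 18 h at 35 °C, ambient air. Inoculum 5×10^5 CFU/ml; drug tested 64-0.06 μg/ml in Mueller-Hinton II broth following NCCLS guidance.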
The test system of test [11] is CNS GC 4538. A digest of the protocol: as §1
Test [12] relates to CNS GC 4547. The method in brief:
as §1

The subject of test [13] is E. faecalis GC 2242. Conditions: E. faecalis GC 2242. A digest of the protocol:
as §1

The subject of test [14] is E. faecalis GC 4555. Conditions: E. faecalis GC 4555. A digest of the protocol:
as §1

Test [15] concerns E. faecalis GC 842. Conditions: E. faecalis GC 842. A digest of the protocol: as §1
Test [16] has as its system S. aureus GC 1131. Conditions: S. aureus GC 1131. The method in brief: as §1
Test [17] has as its system S. aureus GC 2216. Conditions: S. aureus GC 2216. A digest of the protocol:
as §1

For test [18], the system named is S. aureus GC 4536. Conditions: S. aureus GC 4536. A digest of the protocol:
as §1

Test [19] concerns E. coli GC 2203. Conditions: E. coli GC 2203.
For test [20], the system named is P. aeruginosa GC 2214. Conditions: P. aeruginosa GC 2214.
The mark [21] stands for this setting: Escherichia coli, GC4559, read-out: MIC.
Where [22] appears, read: Escherichia coli, GC4560, read-out: MIC.
Where [23] appears, read: Escherichia coli, GC3226, read-out: MIC.
[24] abbreviates: Serratia marcescens, GC4077, read-out: MIC.
Setting [25] is: Candida albicans, GC3066, read-out: MIC.
Setting [26] is: Morganella morganii, GC4531, read-out: MIC.
Where [27] appears, read: Klebsiella pneumoniae, GC4534, read-out: MIC.
[28] abbreviates: Enterobacter cloacae, GC3783, read-out: MIC.
Where [29] appears, read: Pseudomonas aeruginosa, GC4532, read-out: MIC.
Where [30] appears, read: Enterococcus faecalis, GC2242, read-out: MIC.
Setting [31] is: Enterococcus faecalis, GC4555, read-out: MIC.
The mark [32] stands for this setting: Enterococcus faecalis, GC842, read-out: MIC.
The mark [33] stands for this setting: Staphylococcus aureus, GC1131, read-out: MIC.
The mark [34] stands for this setting: Staphylococcus aureus, GC2216, read-out: MIC.
Where [35] appears, read: Staphylococcus aureus, GC4536, read-out: MIC.
[36] abbreviates: Escherichia coli, GC2203, read-out: MIC.
[37] abbreviates: Pseudomonas aeruginosa, GC2214, read-out: MIC.

Converted amounts (≈) assume the structure as drawn. Like-named read-outs stand apart in the source and are kept apart here.

With `CCOC(=O)C(NCCCNC(=O)[C@H](CC(C)C)NC(=O)[C@H](CCCNC(=N)N[N+](=O)O)NC(=O)N[C@H](C(=O)OCc1ccccc1)C(C)C)C(OC(C)=O)[C@H]1O[C@H](n2ccc(=O)[nH]c2=O)[C@H](OC(C)=O)[C@@H]1OC(C)=O` (stereo partly drawn) [Example 41, 19-Benzyl 5-ethyl (4R,12S,15S,19S)-4-[(2R,3R,4R,5S)-3,4-bis(acetyloxy)-5-(2,4-dioxo-3,4-dihydro-1(2H)-pyrimidinyl)tetrahydro-2-furanyl]-15-(3-{[(2,2-dioxido-2lambda˜1˜-diazanyl)(imino)methyl]amino}propyl)-12-isobutyl-20-methyl-2,11,14,17-tetraoxo-3-oxa-6,10,13,16,18-pentaazahenicosane-5,19-dicarboxylate], the minimum inhibitory concentration (MIC) was above 128 µg/mL in test [1] (setting [21]); above 128 µg/mL in [2] (setting [22]); above 128 µg/mL in test [3] (setting [23]); above 128 µg/mL in test [4] (setting [24]); 128 µg/mL in test [5] (setting [25]); above 128 µg/mL in test [6] (setting [26]). Moreover, the minimal inhibitory concentration (MIC) in test [7] (setting [27]) was above 128 µg/mL; in test [8] (setting [28]), above 128 µg/mL; in test [9] (setting [29]) it was 128 µg/mL; in test [10], above 128 µg/mL; in [11], above 128 µg/mL; in [12], above 128 µg/mL. The MIC in test [13] (setting [30]) is 128 µg/mL; in [14] (setting [31]) it was above 128 µg/mL; in [15] (setting [32]), above 128 µg/mL; in test [16] (setting [33]) it was above 128 µg/mL; in test [17] (setting [34]), above 128 µg/mL; in test [18] (setting [35]), above 128 µg/mL. Besides, the MIC is above 128 µg/mL in [19] (setting [36]) and 128 µg/mL in [20] (setting [37]).
Take `CCOC(=O)C(NCCCNC(=O)[C@H](CC(C)C)NC(=O)[C@H](CCCNC(=N)N[N+](=O)[O-])NC(=O)N[C@H](C(=O)OCc1ccccc1)C(C)C)[C@@H](OC(C)=O)[C@H]1O[C@@H](n2ccc(=O)[nH]c2=O)[C@H](OC(C)=O)[C@@H]1OC(C)=O` (stereo partly drawn) [Example 42, 1-Benzyl 17-ethyl (2S,6S,9S)-16-{(R)-(acetyloxy)[(2R,3R,4R,5R)-3,4-bis(acetyloxy)-5-(2,4-dioxo-3,4-dihydro-1(2H)-pyrimidinyl)tetrahydro-2-furanyl]methyl}-6-(3-{[(2,2-dioxido-2lambda˜1˜-diazanyl)(imino)methyl]amino}propyl)-9-isobutyl-2-isopropyl-4,7,10-trioxo-3,5,8,11,15-pentaazaheptadecane-1,17-dioate]: the MIC in test [1] was above 128 µg/mL; in test [2] it was 128 µg/mL (≈ 119 µM); in test [3], 128 µg/mL (≈ 119 µM); in test [4], 128 µg/mL (≈ 119 µM); in [5] it was 128 µg/mL (≈ 119 µM); in test [6], 128 µg/mL (≈ 119 µM). Moreover, the minimum inhibitory concentration (MIC) in test [7] was 128 µg/mL (≈ 119 µM); in test [8] it was 128 µg/mL (≈ 119 µM); in [9], 128 µg/mL (≈ 119 µM); in test [10] (CNS GC 4537), above 128 µg/mL; in test [11] (CNS GC 4538), above 128 µg/mL; in test [12] (CNS GC 4547), 128 µg/mL (≈ 119 µM). Further, the minimum inhibitory concentration (MIC) was 64 µg/mL (≈ 59.5 µM) in [13]; 128 µg/mL (≈ 119 µM) in [14]; 128 µg/mL (≈ 119 µM) in [15]; above 128 µg/mL in test [16]; above 128 µg/mL in test [17]; above 128 µg/mL in [18]. The minimal inhibitory concentration (MIC) in test [19] is above 128 µg/mL; in [20], 128 µg/mL (≈ 119 µM).
Take `CCOC(=O)C(NCCCNC(=O)[C@@H](NC(=O)[C@H](CCCNC(=N)N)NC(=O)N[C@H](C(=O)O)C(C)C)[C@@H](O)C(C)C)[C@@H](O)[C@H]1O[C@@H](n2ccc(=O)[nH]c2=O)[C@H](OC(C)=O)[C@@H]1OC(C)=O` (stereo partly drawn) [Example 43, (2S,6S,9S)-6-(3-{[Amino(imino)methyl]amino}propyl)-16-[(R)-[(2R,3R,4R,5R)-3,4-bis(acetyloxy)-5-(2,4-dioxo-3,4-dihydro-1(2H)-pyrimidinyl)tetrahydro-2-furanyl](hydroxy)methyl]-9-[(1S)-1-hydroxy-2-methylpropyl]-2-isopropyl-4,7,10,17-tetraoxo-18-oxa-3,5,8,11,15-pentaazaicosan-1-oic acid]: the minimum inhibitory concentration (MIC) was above 128 µg/mL in test [1] (setting [21]); above 128 µg/mL in test [2] (setting [22]); above 128 µg/mL in test [3] (setting [23]); above 128 µg/mL in test [4] (setting [24]); 128 µg/mL (≈ 140 µM) in [5] (setting [25]); above 128 µg/mL in test [6] (setting [26]). Further, the minimal inhibitory concentration (MIC) in [7] (setting [27]) is above 128 µg/mL; in test [8] (setting [28]), above 128 µg/mL; in test [9] (setting [29]), 128 µg/mL (≈ 140 µM); in [10] (CNS GC 4537, read-out: MIC) it was above 128 µg/mL; in [11] (CNS GC 4538, read-out: MIC), above 128 µg/mL; in [12] (CNS GC 4547, read-out: MIC) it was above 128 µg/mL. Moreover, the MIC in [13] (setting [30]), in test [14] (setting [31]), in test [15] (setting [32]), in test [16] (setting [33]), in [17] (setting [34]) and in test [18] (setting [35]) was above 128 µg/mL in each case. For the same compound, the values for the MIC in [19] (setting [36]) and in test [20] (setting [37]) were above 128 µg/mL and 128 µg/mL (≈ 140 µM), respectively.
Take `COc1ccc(Cn2c(=O)ccn([C@@H]3OC([C@H](O)[C@H](NCCCNC(=O)[C@@H](NC(=O)OCc4ccccc4)[C@H](C)O)C(=O)OC(C)(C)C)[C@@H](O)[C@H]3O)c2=O)cc1` (stereo partly drawn) [Example 44, tert-Butyl (5S,12S)-12-[(R)-[(3S,4R,5R)-3,4-dihydroxy-5-(3-(4-methoxybenzyl)-2,4-dioxo-3,4-dihydro-1(2H)-pyrimidinyl)tetrahydro-2-furanyl](hydroxy)methyl]-5-[(1S)-1-hydroxyethyl]-3,6-dioxo-1-phenyl-2-oxa-4,7,11-triazatridecan-13-oate]: the minimal inhibitory concentration (MIC) in test [1] (setting [21]) is above 128 µg/mL; in test [2] (setting [22]), 128 µg/mL (≈ 163 µM); in test [3] (setting [23]), above 128 µg/mL; in [4] (setting [24]), 128 µg/mL (≈ 163 µM); in test [5] (setting [25]) it was 128 µg/mL (≈ 163 µM); in test [6] (setting [26]) it was 128 µg/mL (≈ 163 µM). Moreover, the MIC was above 128 µg/mL in [7] (setting [27]); above 128 µg/mL in test [8] (setting [28]); 128 µg/mL (≈ 163 µM) in test [9] (setting [29]); above 128 µg/mL in [10] (CNS GC 4537, read-out: MIC); above 128 µg/mL in [11] (CNS GC 4538, read-out: MIC); above 128 µg/mL in test [12] (CNS GC 4547, read-out: MIC). Also, the MIC is 64 µg/mL (≈ 81.4 µM) in test [13] (setting [30]); 128 µg/mL (≈ 163 µM) in [14] (setting [31]); 128 µg/mL (≈ 163 µM) in [15] (setting [32]); above 128 µg/mL in [16] (setting [33]); above 128 µg/mL in test [17] (setting [34]); above 128 µg/mL in test [18] (setting [35]). The MIC in test [19] (setting [36]) was above 128 µg/mL; in test [20] (setting [37]), 128 µg/mL (≈ 163 µM).
Turning to `COc1ccc(Cn2c(=O)ccn([C@@H]3OC([C@H](O)[C@H](NCCCNC(=O)[C@@H](N)[C@H](C)O)C(=O)OC(C)(C)C)[C@@H](O)[C@H]3O)c2=O)cc1` (stereo partly drawn) [Example 45, tert-Butyl (2S,3R)-2-[(3-{[(2S,3S)-2-amino-3-hydroxybutanoyl]amino}propyl)amino]-3-[(3S,4R,5R)-3,4-dihydroxy-5-(3-(4-methoxybenzyl)-2,4-dioxo-3,4-dihydro-1(2H)-pyrimidinyl)-tetrahydro-2-furanyl]-3-hydroxypropanoate], the MIC was above 128 µg/mL in [1] (setting [21]); above 128 µg/mL in test [2] (setting [22]); above 128 µg/mL in test [3] (setting [23]); above 128 µg/mL in test [4] (setting [24]); 128 µg/mL (≈ 196 µM) in test [5] (setting [25]); 128 µg/mL (≈ 196 µM) in test [6] (setting [26]). Moreover, the MIC in [7] (setting [27]) is above 128 µg/mL; in test [8] (setting [28]), above 128 µg/mL; in [9] (setting [29]), 128 µg/mL (≈ 196 µM); in [10] (CNS GC 4537, read-out: MIC), above 128 µg/mL; in test [11] (CNS GC 4538, read-out: MIC), above 128 µg/mL; in [12] (CNS GC 4547, read-out: MIC), above 128 µg/mL. Further, the minimum inhibitory concentration (MIC) in test [13] (setting [30]) is 128 µg/mL (≈ 196 µM); in [14] (setting [31]), above 128 µg/mL; in test [15] (setting [32]), above 128 µg/mL; in [16] (setting [33]) it was above 128 µg/mL; in test [17] (setting [34]) it was above 128 µg/mL; in test [18] (setting [35]) it was above 128 µg/mL. Further, the MIC was above 128 µg/mL in [19] (setting [36]) and 128 µg/mL (≈ 196 µM) in test [20] (setting [37]).
